Test: Inhibitory effect of monosaccharides against methylglyoxal in vitro
Details: concentration 0.05 M
Excerpt: The percentage inhibitory ratio of monosaccharide against methylglyoxal is 50% when the concentration of the monosaccharide is 0.05 M.
Foregoing exemplary embodiments of the present invention manifest that the low-molecular-weight chitosan has considerable effect to the carbonyl stress induced by the methylglyoxal both in vivo and in vitro. For an exemplary embodiment in vitro, the present invention employs buffer to simulate the same environmental status as human body by means of putting glucosamine and low-molecular-weight chitosan into buffer containing methylglyoxal to measure the bonding ratio thereof after 16 hours so that the half Inhibitory concentration associated with the affecting of low-molecular-weight chitosan to methylglyoxal can be obtained for further study on the examination of the binding conjugation of low-molecular-weight chitosan with methylglyoxal in vitro.

In the case of `NC1C(O)[C@H](O)C(CO)O[C@@H]1O` (stereo partly shown) [monosaccharide, glucosamine], the “percentage inhibitory ratio against methylglyoxal” value is reported as 50%.

From patent publication US10143705B2, “Method of treating a patient with a disease caused by a pathogenic mechanism associated with accumlation of methylglyoxal” (priority 2015, dated 2018)
